Assay results taken from US20170246194A1, “Acetaminophen-Containing Analgesic Formulations With Reduced Hepatotoxicity” (Purdue Pharma L.P., priority 2014, published 2017).

Columns and labels:
[1] = normally, in man; cited from earlier work
male C3HeB/FeJ mice = experiment: Toxicity in mice: acetaminophen-induced liver injury, plasma ALT activity; type: in vivo; conditions: fasted mice; for protection of the liver against acetaminophen damage (maximal ALT elevation): cimetidine 20% and/or methionine 30% of the acetaminophen dose
Description: This example is performed as described in Saito, Hepatology, 51(1):246, 2010, which is incorporated by reference herein.
At selected times after acetaminophen treatment, groups of animals are killed by way of cervical dislocation under anesthesia. Blood is drawn from the vena cava into heparinized syringes and centrifuged. The plasma is used for determination of alanine aminotransferase (ALT) activities. Plasma ALT activities are determined and expressed as international units per liter.
After establishing the model in the pilot phase, five experimental groups are studied. The groups receive vehicles containing the ingredients noted in Table B. If the methionine or cimetidine is ineffective or is fully protective, the doses are adjusted and the experiment repeated until the relative contribution of each relative to the combination is determined.
The outcome is maximal ALT elevation. Data are expressed as the mean±standard error. Comparison between groups is performed analysis of variance, or alternative non-parametric procedures if the data is not normally distributed. P<0.05 is considered significant.

volunteers = conditions: human volunteers, given with acetaminophen 4 grams a day
Description: All subjects participate in an initial multiple dose study of 1 gram of acetaminophen given four times a day (four grams a day), protected by twice a day transaminase determinations. […] Subjects with no elevation are terminated from the study. Subjects rest for three weeks after the first phase and then return for the second phase.
Subjects dose at 4 grams of acetaminophen a day. They have twice daily blood samples for serum transaminases, and proceed to the next day's dosing only if their most recent transaminase values are no more than 3 times the upper limit of normal.
The outcome variable is maximal transaminase elevations for each subject relative to baseline tested by ANOVA for each formulation. The test article is hepato-protective if there is a significant (P<0.05) difference in outcome for the formulation.
Subjects with transaminase elevations are followed at intervals to ensure that their values return to normal.

## CC(=O)Nc1ccc(O)cc1 [acetaminophen, N-acetyl-p-aminophenol]
[1]
  ingested dose metabolized to the non-toxic sulfate or glucuronide: 96%
Male C3HeB/FeJ mice; acetaminophen alone, intraperitoneal single dose
  liver injury (maximal ALT elevation): causes liver injury

## CSCC[C@H](N)C(=O)O [methionine]
Male C3HeB/FeJ mice
  protection of the liver against acetaminophen damage (maximal ALT elevation): protected against damage
volunteers
  serious adverse effects: no additional serious adverse effects

## CN/C(=N/CCSCc1nc[nH]c1C)NC#N [cimetidine]
Male C3HeB/FeJ mice
  protection of the liver against acetaminophen damage (maximal ALT elevation): protected against damage
volunteers
  serious adverse effects: no additional serious adverse effects
